According to the kinase profiling compilation of Christmann-Franck et al. (2016):

Tests used:
Assay in all cases: KINOMEscan competition binding
Conditions in all cases: compound 10.0 µM
BLK (human) = BLK (human) (UniProt P51451)
BMPR1B (human) = BMPR1B (human) (UniProt O00238)
CSNK1G1 (human) = CSNK1G1 (human) (UniProt Q9HCP0)
DCLK1 (human) = DCLK1 (human) (UniProt O15075)
DYRK1B (human) = DYRK1B (human) (UniProt Q9Y463)
[1] = tested on: EIF2AK4 KD2 (human), Q9P2K8 [S808G]
EPHA1 (human) = EPHA1 (human) (UniProt P21709)
EPHA8 (human) = EPHA8 (human) (UniProt P29322)
Chain of EPHA8 (human) (P29322 whole entry, looked up): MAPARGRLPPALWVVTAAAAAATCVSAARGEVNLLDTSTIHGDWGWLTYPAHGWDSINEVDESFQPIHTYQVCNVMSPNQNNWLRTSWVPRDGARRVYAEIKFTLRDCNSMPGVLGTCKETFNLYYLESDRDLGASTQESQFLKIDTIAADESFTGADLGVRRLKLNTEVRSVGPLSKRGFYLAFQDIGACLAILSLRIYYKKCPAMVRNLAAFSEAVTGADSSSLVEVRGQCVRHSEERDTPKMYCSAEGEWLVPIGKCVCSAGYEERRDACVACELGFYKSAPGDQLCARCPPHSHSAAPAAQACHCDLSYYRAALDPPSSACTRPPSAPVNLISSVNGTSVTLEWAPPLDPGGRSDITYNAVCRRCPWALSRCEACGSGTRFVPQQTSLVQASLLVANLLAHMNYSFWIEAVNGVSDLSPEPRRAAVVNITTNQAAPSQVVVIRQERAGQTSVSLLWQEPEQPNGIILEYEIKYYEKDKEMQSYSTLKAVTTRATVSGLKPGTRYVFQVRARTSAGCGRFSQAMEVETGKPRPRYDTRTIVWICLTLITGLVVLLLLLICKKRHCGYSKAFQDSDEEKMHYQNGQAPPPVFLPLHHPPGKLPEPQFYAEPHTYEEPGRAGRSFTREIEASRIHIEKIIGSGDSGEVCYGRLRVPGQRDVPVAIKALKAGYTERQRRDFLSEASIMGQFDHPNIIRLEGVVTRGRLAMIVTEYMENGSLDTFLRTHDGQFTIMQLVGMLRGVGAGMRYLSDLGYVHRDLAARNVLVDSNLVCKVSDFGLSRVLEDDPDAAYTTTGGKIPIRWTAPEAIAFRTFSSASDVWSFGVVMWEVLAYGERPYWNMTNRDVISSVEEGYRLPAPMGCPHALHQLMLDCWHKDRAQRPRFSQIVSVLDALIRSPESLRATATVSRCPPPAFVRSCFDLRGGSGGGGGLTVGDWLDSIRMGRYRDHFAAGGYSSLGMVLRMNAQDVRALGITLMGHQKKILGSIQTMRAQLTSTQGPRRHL

FER (human) = FER (human) (UniProt P16591)
FES (human) = FES (human) (UniProt P07332)
FGFR2 (human) = FGFR2 (human) (UniProt P21802)
FGFR3 (human) = FGFR3 (human) (UniProt P22607)
FLT3 (human) = FLT3 (human) (UniProt P36888)
GAK (human) = GAK (human) (UniProt O14976)
GSK3B (human) = GSK3B (human) (UniProt P49841)
LCK (human) = LCK (human) (UniProt P06239)
Chain of LCK (human) (P06239 whole entry, looked up): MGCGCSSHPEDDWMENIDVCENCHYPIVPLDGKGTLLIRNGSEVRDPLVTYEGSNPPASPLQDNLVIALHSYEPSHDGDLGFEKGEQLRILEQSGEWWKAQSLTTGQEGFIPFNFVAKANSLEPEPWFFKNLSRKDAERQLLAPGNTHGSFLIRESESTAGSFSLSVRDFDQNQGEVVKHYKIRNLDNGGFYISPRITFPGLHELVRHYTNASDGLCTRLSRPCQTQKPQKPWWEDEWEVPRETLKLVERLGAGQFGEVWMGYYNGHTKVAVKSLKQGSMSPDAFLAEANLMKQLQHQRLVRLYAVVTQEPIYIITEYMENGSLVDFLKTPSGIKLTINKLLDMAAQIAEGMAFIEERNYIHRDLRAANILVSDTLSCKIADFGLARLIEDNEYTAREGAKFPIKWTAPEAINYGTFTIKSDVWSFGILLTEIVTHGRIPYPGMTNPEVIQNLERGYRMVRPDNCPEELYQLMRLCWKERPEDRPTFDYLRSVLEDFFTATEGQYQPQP

MAP2K2 (human) = MAP2K2 (human) (UniProt P36507)
Chain of MAP2K2 (human) (P36507 whole entry, looked up): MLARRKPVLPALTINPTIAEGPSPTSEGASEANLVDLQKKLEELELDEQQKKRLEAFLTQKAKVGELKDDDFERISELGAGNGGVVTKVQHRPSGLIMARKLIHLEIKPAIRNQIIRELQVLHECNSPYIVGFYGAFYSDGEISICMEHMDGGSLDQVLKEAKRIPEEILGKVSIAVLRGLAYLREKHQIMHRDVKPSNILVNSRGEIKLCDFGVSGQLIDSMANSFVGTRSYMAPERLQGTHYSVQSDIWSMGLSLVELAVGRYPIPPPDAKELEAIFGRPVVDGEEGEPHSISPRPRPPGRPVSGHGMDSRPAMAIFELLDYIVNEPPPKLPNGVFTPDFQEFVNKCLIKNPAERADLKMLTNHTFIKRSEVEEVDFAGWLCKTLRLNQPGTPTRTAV

MAP2K4 (human) = MAP2K4 (human) (UniProt P45985)
MAP2K6 (human) = MAP2K6 (human) (UniProt P52564)
MAP3K10 (human) = MAP3K10 (human) (UniProt Q02779)
MAP4K1 (human) = MAP4K1 (human) (UniProt Q92918)
Chain of MAP4K1 (human) (Q92918 whole entry, looked up): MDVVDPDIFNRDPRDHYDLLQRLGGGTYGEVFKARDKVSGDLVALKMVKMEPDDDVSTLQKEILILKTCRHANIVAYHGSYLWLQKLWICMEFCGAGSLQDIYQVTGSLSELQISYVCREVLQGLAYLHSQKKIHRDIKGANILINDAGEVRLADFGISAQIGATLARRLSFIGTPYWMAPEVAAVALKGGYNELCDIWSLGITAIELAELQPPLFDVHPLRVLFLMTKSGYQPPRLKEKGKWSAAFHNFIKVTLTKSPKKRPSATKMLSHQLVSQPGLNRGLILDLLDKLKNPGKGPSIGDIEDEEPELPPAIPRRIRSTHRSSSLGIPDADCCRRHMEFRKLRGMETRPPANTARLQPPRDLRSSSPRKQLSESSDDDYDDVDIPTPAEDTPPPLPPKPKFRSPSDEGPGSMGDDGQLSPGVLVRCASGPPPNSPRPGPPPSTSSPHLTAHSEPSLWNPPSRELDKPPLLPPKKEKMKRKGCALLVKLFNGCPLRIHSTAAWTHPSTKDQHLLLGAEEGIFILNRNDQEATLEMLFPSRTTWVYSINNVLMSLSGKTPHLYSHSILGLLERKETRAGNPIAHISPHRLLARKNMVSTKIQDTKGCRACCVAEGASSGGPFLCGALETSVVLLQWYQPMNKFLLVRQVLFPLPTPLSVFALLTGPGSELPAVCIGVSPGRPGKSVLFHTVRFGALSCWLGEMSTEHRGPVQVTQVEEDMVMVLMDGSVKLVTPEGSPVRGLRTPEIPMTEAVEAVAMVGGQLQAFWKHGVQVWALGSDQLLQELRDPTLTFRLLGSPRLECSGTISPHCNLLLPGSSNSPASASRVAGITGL

MAPK10 (human) = MAPK10 (human) (UniProt P53779)
MINK1 (human) = MINK1 (human) (UniProt Q8N4C8)
MLTK (human) = MLTK (human) (UniProt Q9NYL2)
NTRK1 (human) = NTRK1 (human) (UniProt P04629)
NTRK3 (human) = NTRK3 (human) (UniProt Q16288)
PAK4 (human) = PAK4 (human) (UniProt O96013)
PAK7 (human) = PAK7 (human) (UniProt Q9P286)
Chain of PAK7 (human) (Q9P286 whole entry, looked up): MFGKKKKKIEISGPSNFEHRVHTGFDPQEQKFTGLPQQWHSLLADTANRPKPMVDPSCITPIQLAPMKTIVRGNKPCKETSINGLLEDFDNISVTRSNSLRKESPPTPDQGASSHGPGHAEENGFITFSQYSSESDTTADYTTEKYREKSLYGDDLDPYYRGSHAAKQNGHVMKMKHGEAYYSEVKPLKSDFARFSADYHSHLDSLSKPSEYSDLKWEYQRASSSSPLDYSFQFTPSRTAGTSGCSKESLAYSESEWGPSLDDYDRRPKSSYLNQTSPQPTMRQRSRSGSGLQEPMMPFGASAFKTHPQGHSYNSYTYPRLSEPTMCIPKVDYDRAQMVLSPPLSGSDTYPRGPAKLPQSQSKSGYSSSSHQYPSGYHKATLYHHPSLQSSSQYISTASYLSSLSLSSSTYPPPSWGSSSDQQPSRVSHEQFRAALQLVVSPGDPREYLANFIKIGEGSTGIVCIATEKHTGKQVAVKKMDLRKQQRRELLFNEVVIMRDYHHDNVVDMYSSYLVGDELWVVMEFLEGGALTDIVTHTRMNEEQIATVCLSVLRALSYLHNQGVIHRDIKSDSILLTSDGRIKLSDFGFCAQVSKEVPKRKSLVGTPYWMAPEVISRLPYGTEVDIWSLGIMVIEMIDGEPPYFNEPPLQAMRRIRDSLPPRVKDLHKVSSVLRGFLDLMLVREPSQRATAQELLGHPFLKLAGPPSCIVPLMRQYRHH

PDGFRA (human) = PDGFRA (human) (UniProt P16234)
PIM2 (human) = PIM2 (human) (UniProt Q9P1W9)
RPS6KA1 KD1 (human) = RPS6KA1 KD1 (human) (UniProt Q15418)
RPS6KA3 KD1 (human) = RPS6KA3 KD1 (human) (UniProt P51812)
SLK (human) = SLK (human) (UniProt Q9H2G2)
Chain of SLK (human) (Q9H2G2 whole entry, looked up): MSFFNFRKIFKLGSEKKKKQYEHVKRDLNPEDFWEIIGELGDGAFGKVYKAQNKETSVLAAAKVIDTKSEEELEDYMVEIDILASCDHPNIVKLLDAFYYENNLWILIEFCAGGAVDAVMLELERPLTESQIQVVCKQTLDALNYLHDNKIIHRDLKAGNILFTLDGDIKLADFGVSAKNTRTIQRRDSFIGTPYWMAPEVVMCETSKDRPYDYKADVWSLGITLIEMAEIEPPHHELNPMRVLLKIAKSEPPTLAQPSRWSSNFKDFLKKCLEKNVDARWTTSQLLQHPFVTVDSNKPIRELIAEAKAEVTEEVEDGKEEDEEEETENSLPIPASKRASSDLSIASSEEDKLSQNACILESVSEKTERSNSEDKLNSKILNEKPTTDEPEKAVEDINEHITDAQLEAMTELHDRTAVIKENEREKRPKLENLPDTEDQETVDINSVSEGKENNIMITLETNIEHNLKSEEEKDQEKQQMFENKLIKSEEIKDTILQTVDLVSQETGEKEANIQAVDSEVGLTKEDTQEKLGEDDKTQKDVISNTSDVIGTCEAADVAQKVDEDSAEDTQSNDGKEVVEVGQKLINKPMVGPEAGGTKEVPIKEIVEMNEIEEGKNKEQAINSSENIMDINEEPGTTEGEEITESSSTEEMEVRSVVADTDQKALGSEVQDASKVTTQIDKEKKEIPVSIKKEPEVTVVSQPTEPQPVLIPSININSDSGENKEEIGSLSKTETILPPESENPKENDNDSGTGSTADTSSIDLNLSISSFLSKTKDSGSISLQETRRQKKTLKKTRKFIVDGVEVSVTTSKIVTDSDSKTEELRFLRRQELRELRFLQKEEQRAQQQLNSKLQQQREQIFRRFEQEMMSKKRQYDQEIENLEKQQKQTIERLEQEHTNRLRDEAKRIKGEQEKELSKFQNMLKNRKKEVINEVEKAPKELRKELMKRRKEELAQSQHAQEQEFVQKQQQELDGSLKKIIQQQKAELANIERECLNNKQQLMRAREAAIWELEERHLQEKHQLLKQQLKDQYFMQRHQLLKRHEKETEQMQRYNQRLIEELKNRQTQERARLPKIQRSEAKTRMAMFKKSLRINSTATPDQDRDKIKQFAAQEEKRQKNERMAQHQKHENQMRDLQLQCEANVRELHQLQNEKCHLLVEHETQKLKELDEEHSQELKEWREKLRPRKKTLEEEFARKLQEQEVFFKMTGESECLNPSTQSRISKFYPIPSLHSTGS

SRMS (human) = SRMS (human) (UniProt Q9H3Y6)
STK16 (human) = STK16 (human) (UniProt O75716)
Chain of STK16 (human) (O75716 whole entry, looked up): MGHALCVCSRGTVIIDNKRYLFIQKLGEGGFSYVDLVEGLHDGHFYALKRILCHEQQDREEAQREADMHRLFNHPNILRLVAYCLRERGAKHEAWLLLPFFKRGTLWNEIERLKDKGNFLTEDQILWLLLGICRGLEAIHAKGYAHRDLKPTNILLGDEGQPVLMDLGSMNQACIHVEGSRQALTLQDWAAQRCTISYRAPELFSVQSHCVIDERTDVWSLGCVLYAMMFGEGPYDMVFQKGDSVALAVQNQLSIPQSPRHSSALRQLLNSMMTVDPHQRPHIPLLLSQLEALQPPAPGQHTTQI

STK32B (human) = STK32B (human) (UniProt Q9NY57)
STK38L (human) = STK38L (human) (UniProt Q9Y2H1)
TAOK3 (human) = TAOK3 (human) (UniProt Q9H2K8)
TTK (human) = TTK (human) (UniProt P33981)
MKNK2 (human) = MKNK2 (human) (UniProt Q9HBH9)

SMILES | kinase still bound, per cent of control (BMPR1B (human)) | kinase still bound, per cent of control (DCLK1 (human)) | kinase still bound, per cent of control (DYRK1B (human)) | kinase still bound, per cent of control [1] | kinase still bound, per cent of control (EPHA1 (human)) | kinase still bound, per cent of control (EPHA8 (human)) | kinase still bound, per cent of control (FER (human)) | kinase still bound, per cent of control (FGFR2 (human)) | kinase still bound, per cent of control (FGFR3 (human)) | kinase still bound, per cent of control (FLT3 (human)) | kinase still bound, per cent of control (GAK (human)) | kinase still bound, per cent of control (GSK3B (human)) | kinase still bound, per cent of control (LCK (human)) | kinase still bound, per cent of control (MAP2K2 (human)) | kinase still bound, per cent of control (MAP2K4 (human)) | kinase still bound, per cent of control (MAP2K6 (human)) | kinase still bound, per cent of control (MAP3K10 (human)) | kinase still bound, per cent of control (MAP4K1 (human)) | kinase still bound, per cent of control (MAPK10 (human)) | kinase still bound, per cent of control (MINK1 (human)) | other results
Nc1ccc(-c2ccc3ncc4ccc(=O)n(-c5cccc(C(F)(F)F)c5)c4c3c2)cn1 | 86% | 97% | 97% | 100% | 93% | 99% | 95% | 90% | 75% | 12% | 56% | 100% | 100% | 100% | 44% | 93% | 100% | 100% | 78% | 56% | kinase still bound, per cent of control (BLK (human)): 98%; kinase still bound, per cent of control (CSNK1G1 (human)): 100%; kinase still bound, per cent of control (FES (human)): 100%; kinase still bound, per cent of control (MLTK (human)): 65%; kinase still bound, per cent of control (NTRK1 (human)): 57%; kinase still bound, per cent of control (NTRK3 (human)): 100%; kinase still bound, per cent of control (PAK4 (human)): 100%; kinase still bound, per cent of control (PAK7 (human)): 69%; kinase still bound, per cent of control (PDGFRA (human)): 62%; kinase still bound, per cent of control (PIM2 (human)): 100%; kinase still bound, per cent of control (RPS6KA1 KD1 (human)): 100%; kinase still bound, per cent of control (RPS6KA3 KD1 (human)): 80%; kinase still bound, per cent of control (SLK (human)): 100%; kinase still bound, per cent of control (SRMS (human)): 88%; kinase still bound, per cent of control (STK16 (human)): 59%; kinase still bound, per cent of control (STK32B (human)): 100%; kinase still bound, per cent of control (STK38L (human)): 100%; kinase still bound, per cent of control (TAOK3 (human)): 80%; kinase still bound, per cent of control (TTK (human)): 42%
CC[C@@H]1C(=O)N(C)c2cnc(Nc3ccc(C(=O)NC4CCN(C)CC4)cc3OC)nc2N1C1CCCC1 | 100% | 5.4% | 100% | 100% | 100% | 100% | 100% | 100% | 100% | 100% | 1.6% | 100% | 100% | 100% | 100% | 100% | 100% | 100% | 100% | 100% | kinase still bound, per cent of control (MKNK2 (human)): 100%; kinase still bound, per cent of control (MLTK (human)): 100%; kinase still bound, per cent of control (NTRK3 (human)): 100%; kinase still bound, per cent of control (PAK4 (human)): 100%; kinase still bound, per cent of control (PAK7 (human)): 100%; kinase still bound, per cent of control (PDGFRA (human)): 100%; kinase still bound, per cent of control (PIM2 (human)): 100%; kinase still bound, per cent of control (RPS6KA1 KD1 (human)): 100%; kinase still bound, per cent of control (SLK (human)): 3%; kinase still bound, per cent of control (SRMS (human)): 100%; kinase still bound, per cent of control (STK16 (human)): 14%; kinase still bound, per cent of control (STK32B (human)): 100%; kinase still bound, per cent of control (STK38L (human)): 100%; kinase still bound, per cent of control (TAOK3 (human)): 100%; kinase still bound, per cent of control (TTK (human)): 6.3%
Cn1c(=O)n(-c2ccc(C(C)(C)C#N)cc2)c2c3cc(-c4cnc5ccccc5c4)ccc3ncc21 | 100% | 100% | 100% | 100% | 100% | 100% | 100% | 100% | 100% | 100% | 100% | 100% | 100% | 100% | 100% | 100% | 100% | 100% | 100% | 100% | kinase still bound, per cent of control (BLK (human)): 100%; kinase still bound, per cent of control (CSNK1G1 (human)): 100%; kinase still bound, per cent of control (FES (human)): 100%; kinase still bound, per cent of control (MKNK2 (human)): 100%; kinase still bound, per cent of control (MLTK (human)): 100%; kinase still bound, per cent of control (NTRK3 (human)): 100%; kinase still bound, per cent of control (PAK4 (human)): 100%; kinase still bound, per cent of control (PAK7 (human)): 100%; kinase still bound, per cent of control (PDGFRA (human)): 100%; kinase still bound, per cent of control (PIM2 (human)): 100%; kinase still bound, per cent of control (RPS6KA1 KD1 (human)): 100%; kinase still bound, per cent of control (SLK (human)): 100%; kinase still bound, per cent of control (SRMS (human)): 100%; kinase still bound, per cent of control (STK16 (human)): 100%; kinase still bound, per cent of control (STK32B (human)): 100%; kinase still bound, per cent of control (STK38L (human)): 100%; kinase still bound, per cent of control (TAOK3 (human)): 100%; kinase still bound, per cent of control (TTK (human)): 100%
